In paper PMC9942557, “Bolaamphiphile Analogues of 12-bis-THA Cl2 Are Potent Antimicrobial Therapeutics with Distinct Mechanisms of Action against Bacterial, Mycobacterial, and Fungal Pathogens” (mSphere, 2022):
Like-named read-outs stand apart in the source and are kept apart here.

Key:
[1] = system: Pseudomonas aeruginosa RP73; test: Intrahemocoelic G. mellonella infection model; assay type: in vivo, Galleria mellonella; settings: 96 h
P. aeruginosa NCTC 13437 [2] = test: Fixed-concentration (0.25× MIC bolalipid) synergy broth microdilution; assay type: cell-based, Pseudomonas aeruginosa; settings: Pseudomonas aeruginosa, NCTC13437, P. aeruginosa NCTC 13437, read-out: MIC of aminoglycoside
[3] = system: Pseudomonas aeruginosa RP73; test: In vitro pharmacodynamic (PD) assay; settings: P. aeruginosa RP73; combination 2:1 (wt/wt)
Description: In vitro PD assays were performed with Pseudomonas aeruginosa RP73 cultured in Roswell Park Memorial Institute 1640 medium (RPMI) supplemented with 5% Mueller-Hinton broth (MHB) ([35]). Bacteria were cultured overnight in 10 mL of RPMI–5% MHB at 37°C and diluted just prior to plate inoculation to an OD600 of 0.002. Stock solutions of colistin or tobramycin were prepared in sterile MilliQ water at a concentration of 200× MIC. Octa-bola was prepared in methanol at 2,000× MIC and diluted in water to 200× MIC. A dilution series was made in the top row of a polypropylene 96-well plate from 200× MIC to 0.2× MIC in a volume of 100 μL, to which 100 μL of the bacterial suspension was added to have a total of 1 × 10^6 log-phase CFU in 200 μL. The first time zero sample was taken <30 s after addition of bacteria to the plate, with further samples taken at appropriate intervals thereafter. […] Fifteen microliters was removed from each well, diluted 1:1,000 in phosphate-buffered saline, and plated onto RPMI–5% MH agar plates. The plates were incubated at 37°C overnight for CFU counting.
CFU data were log10 transformed, and the bacterial net growth rate was determined from the increase or decrease in CFU during the time of exposure to the antibiotics as the coefficient of a linear regression of log10 CFU as a function of time. The intercept of the regression was fixed by forcing the regression lines through the first CFU measurement (0 min) at a given antimicrobial concentration. The pharmacodynamic function according to Regoes et al. ([36]) describes the relationship between bacterial net growth rate (ψ) and the concentration of an antimicrobial (a): ψmax − ([ψmax − ψmin][a/zMIC])^κ/([a/zMIC]^κ − [ψmin/ψmax]). Fitting this function to the net bacterial growth rates in OriginPro 2020 (OriginLab Corporation, Northampton, MA) generates the parameters ψmin and ψmax (minimum and maximum growth rates, respectively), zMIC (the pharmacodynamic MIC), and κ (a measure of the cooperativity). […]

P. aeruginosa PAO1 [4] = test: Fixed-concentration (0.25× MIC bolalipid) synergy broth microdilution; assay type: cell-based, Pseudomonas aeruginosa; settings: Pseudomonas aeruginosa, PAO1, P. aeruginosa PAO1, read-out: MIC of aminoglycoside
A. baumannii AYE = test: as above; assay type: cell-based; settings: Acinetobacter baumannii
P. aeruginosa NCTC 13437 [5] = test: Checkerboard synergy assay; assay type: cell-based, Pseudomonas aeruginosa
A. baumannii ATCC 17978 = test: Fixed-concentration (0.25× MIC bolalipid) synergy broth microdilution; assay type: cell-based; settings: Acinetobacter baumannii, ATCC17978, A. baumannii ATCC 17978, read-out: MIC of aminoglycoside
K. pneumoniae NCTC 13368 = test: as above; assay type: cell-based, Klebsiella pneumoniae; settings: Klebsiella pneumoniae, NCTC13368, K. pneumoniae NCTC 13368, read-out: MIC of aminoglycoside
K. pneumoniae M6 = test: as above; assay type: cell-based; settings: Klebsiella pneumoniae
P. aeruginosa PAO1 [6] = test: Checkerboard synergy assay; assay type: cell-based, Pseudomonas aeruginosa
P. aeruginosa RP73 = test: Checkerboard synergy assay; assay type: cell-based, Pseudomonas aeruginosa
E. coli NCTC 12923 = test: Fixed-concentration (0.25× MIC bolalipid) synergy broth microdilution; assay type: cell-based; settings: Escherichia coli, NCTC12923, E. coli NCTC 12923, read-out: MIC of aminoglycoside
[7] = in the presence of 0.25× MIC Octa-Bola
[8] = in the presence of 0.25× MIC Octa-C6
[9] = in the presence of 0.25× MIC Octa-C10
[10] = No bola, read-out: MIC of aminoglycoside
[11] = in the presence of 0.25× MIC Octa-Bola, read-out: MIC of aminoglycoside
[12] = in the presence of 0.25× MIC Octa-C6, read-out: MIC of aminoglycoside
[13] = in the presence of 0.25× MIC Octa-C10, read-out: MIC of aminoglycoside

## NC[C@H]1O[C@H](O[C@H]2[C@H](O)[C@@H](O[C@H]3O[C@H](CO)[C@@H](O)[C@H](N)[C@H]3O)[C@H](N)C[C@@H]2N)[C@H](N)C[C@@H]1O [Tobramycin]
[1]; 5 mg/kg
  larvae rescued: 37.5%
[1]; 50 mg/kg, 1 × 10^2 CFU per larva
  larvae rescued: 97.5%
P. aeruginosa NCTC 13437 [2]; No bola
  MIC: 64 µg/mL
P. aeruginosa NCTC 13437 [2]; [7]
  MIC: 8 µg/mL
P. aeruginosa NCTC 13437 [2]; [8]
  MIC: 8 µg/mL
P. aeruginosa NCTC 13437 [2]; [9]
  MIC: 4 µg/mL
[3]
  bactericidal activity (minimum growth rate, ψmin): weakly bactericidal
P. aeruginosa PAO1 [4]; No bola
  MIC: 1 µg/mL
P. aeruginosa PAO1 [4]; [7]
  MIC: 0.5 µg/mL
P. aeruginosa PAO1 [4]; [8]
  MIC: 0.5 µg/mL
P. aeruginosa PAO1 [4]; [9]
  MIC: 0.25 µg/mL
A. baumannii AYE; [10]
  MIC: 64 µg/mL
A. baumannii AYE; [11]
  MIC: 8 µg/mL
A. baumannii AYE; [12]
  MIC: 16 µg/mL
A. baumannii AYE; [13]
  MIC: 4 µg/mL
P. aeruginosa NCTC 13437 [5]
  MIC alone Antibiotic: 64 µg/mL
A. baumannii ATCC 17978; No bola
  MIC: 2 µg/mL
A. baumannii ATCC 17978; [7]
  MIC: 0.125 µg/mL
A. baumannii ATCC 17978; [8]
  MIC: 0.5 µg/mL
A. baumannii ATCC 17978; [9]
  MIC: 0.5 µg/mL
K. pneumoniae NCTC 13368; No bola
  MIC: 8 µg/mL
K. pneumoniae NCTC 13368; [7]
  MIC: 4 µg/mL
K. pneumoniae NCTC 13368; [8]
  MIC: 16 µg/mL
K. pneumoniae NCTC 13368; [9]
  MIC: 8 µg/mL
K. pneumoniae M6; [10]
  MIC: 1 µg/mL
K. pneumoniae M6; [11]
  MIC: 0.5 µg/mL
K. pneumoniae M6; [12]
  MIC: 1 µg/mL
K. pneumoniae M6; [13]
  MIC: 0.25 µg/mL
P. aeruginosa PAO1 [6]
  MIC alone Antibiotic: 0.5 µg/mL
P. aeruginosa RP73
  MIC alone Antibiotic: 2 µg/mL
E. coli NCTC 12923; No bola
  MIC: 2 µg/mL
E. coli NCTC 12923; [7]
  MIC: 1 µg/mL
E. coli NCTC 12923; [8]
  MIC: 2 µg/mL
E. coli NCTC 12923; [9]
  MIC: 1 µg/mL
